Experimental data reported in patent publication US20210205292A1, “INHIBITORS OF CREB-CBP INTERACTION FOR TREATMENT OF LEUKEMIA” (The Board of Trustees of the Leland Stanford Junior …, priority 2016, published 2021).
“Also recorded” adds a separate entry of the source.

Assays:
[1] = system: CREB-driven promoter (CRE); assay: CREB-driven (CRE) luciferase reporter in KG-1 cells; type: cell-based; conditions: 6 hours
Experimental: KG-1 cell lines were created to express luciferase in a CREB-dependent or non-CREB-dependent fashion using lentiviral gene delivery. Cells were sorted for mCherry expression by flow cytometry and selected with puromycin. Luciferase activity was measured on a […] using the Promega Luciferase Activity Kit (Promega) per manufacturer's instructions following six hours of treatment with Compound A or 0.1% DMSO. The split Renilla luciferase complementation assay has been described previously (Li BX, and Xiao X. Discovery of a small-molecule inhibitor of the KIX-KID interaction. Chembiochem: a European journal of chemical biology. 2009; 10(17):2721-4). In this assay, the KID and KIX domains were fused to the N- and C-terminal regions of Renilla luciferase, respectively. Once KIX binds phosphorylated KID, the Renilla luciferase regions were brought together, resulting in luciferase activity.
To test the ability of Compound A to disrupt CREB-CBP binding in cells, a split Renilla luciferase complementation assay was performed. […] This early timepoint was selected to permit accurate reporter gene activity measurement prior to the onset of anticipated global cell dysfunction or death induced by Compound A. Treatment with 3 μM Compound A reduced luciferase activity by 33.2±7.7% at this timepoint. […] Thus, Compound A inhibits CREB function through disruption of CREB:CBP interaction.

AML cell lines = assay: Viable cell count of AML cell lines (Vi-CELL); type: cell-based; conditions: four AML cell lines, 48 hours; range across lines, units printed with the values; read-out: IC50, 50% reduced viable cell count compared to DMSO-treated cells
Experimental: AML cell lines were purchased from ATCC and maintained with IMDM (Gibco) supplemented with 10% FBS (Fisher Scientific) and 1% PSG (Gibco). Cells were plated at a density of 2-4×10^5 cells/ml, and treated with various doses of Compound A in 0.1% DMSO or 0.1% DMSO alone. Cell counts and viability were determined using the Vi-CELL XR Cell Viability Analyzer (Beckman Coulter). HL-60 and KG-1 cells overexpressing CREB or CBP were generated using lentiviral gene delivery with subsequent puromycin selection and FACs sorting for GFP. CREB knockdown was achieved by infecting cells with a lentivirus expressing the shRNA sequence 5′-[…]-3′ (SEQ ID NO:). For chemotherapy combination experiments, combination index values were calculated using median effects analysis on Calcusyn software. Human patient bone marrow samples were cultured in DMEM plus 20% FBS and 1×PSG, supplemented with recombinant GM-CSF (20 ng/ml), G-CSF (20 ng/ml), SCF (50 ng/ml), IL-3 (20 ng/ml), and IL-6 (10 ng/ml). Cells were plated at a concentration of 1×10^5 cells/ml in a 12-well plate. Vehicle (0.1% DMSO) or Compound A (2 μM) was added for up to 72 hours. All samples contained >85% AML blasts and were not sorted prior to performing experiments. […] Single cell suspensions of bone marrow culture were subsequently analyzed on a D×P10 flow cytometer (Cytek). […]

H3K27 acetylation = assay: Western blot of total and H3K27-specific histone acetylation; type: cell-based; conditions: 6 or 24 hours
Experimental: (§1) Cells were lysed in RIPA buffer (Sigma), and the protein concentrations were determined by BCA assay (Thermo Scientific Pierce). Lysates were solubilized in 6×SDS PAGE buffer and […] of protein was loaded into 6-15% SDS PAGE gels, pheresed, and then transferred onto […] PVDF membrane (Millipore). Primary antibodies were applied at a dilution of 1:1000. Anti-Bcl-2, -Bax, -Mcl-1, -Bcl-XL, -Cyclin A and -Cyclin D1 antibodies were purchased from Cell Signaling Technologies. Anti-total acetylated histone and -ac-H3K27 were purchased from Santa Cruz Biotechnologies. Anti-actin and -CREB antibodies were purchased from upstate. Secondary antibodies were used at a 1:2500 dilution and purchased from Thermo Scientific/Pierce. WesternBright ECL was used for image acquisition on Image Lab software (Bio-Rad).

CREB target genes = assay: RT-PCR of CREB target genes in GFP+ bone marrow cells of engrafted NSG mice; type: in vivo, mouse; conditions: 2.3 mg/kg, three once-daily treatments after ten-day engraftment
Experimental: To directly evaluate the effects of Compound A on CREB transcriptional activity in vivo, six NSG mice were injected with 2×10^6 HL-60 expressing GFP. After a ten-day engraftment period, the mice received three once-daily treatments of either 2.3 mg/kg Compound A or DMSO. The mice were then sacrificed and GFP+ bone marrow cells were sorted and analyzed for transcriptional changes in validated CREB target genes. This experiment recapitulated in vitro findings (FIG. 4, panel E).

CREB phosphorylation = CREB phosphorylation in HL-60 cells; type: cell-based, human
Source text: FIG. 12, panels A-D, illustrates the results of CyTOF Phenotyping and Compound A Combination Studies. […] Viability for Compound A treatment alone was 87.4±7.3%, versus 55.3±3.4% and 49.5±2.3% when combined with ERK and RSK inhibitors, respectively (* indicates p<0.05 compared to cells treated with Compound A alone). Panel D) Compound A inhibits CREB phosphorylation in the presence of serum. HL-60 cells were serum-starved then stimulated with serum.
as §1

## N#Cc1ccc(NC(=O)c2cc3ccccc3cc2O)cc1 [Compound A, N-(4-cyanophenyl)-3-hydroxy-2-naphthamide]
[1]; 3 μM
  reduction of CREB-driven luciferase activity: 33.2±7.7%
[1]; KG-1 cells, 3, 10 and 30 μM
  CREB-driven luciferase activity: significantly decreased; also recorded: reduced by Compound A in a dose-dependent fashion
AML cell lines
  IC50: 0.87 to 2.3 µM
H3K27 acetylation
  H3K27 acetylation (Western blot): specific decrease in H3K27 acetylation
CREB target genes
  expression of CREB target genes in vivo (RT-PCR): significantly reduced expression of all genes shown
CREB phosphorylation; HL-60 cells serum-starved then stimulated with serum, 48 hours
  CREB phosphorylation in the presence of serum: CREB phosphorylation decreases
CREB phosphorylation; HL-60 cells, 24 hours
  CREB phosphorylation: increase in CREB phosphorylation
